One data set has as its system RSV A2. Nature of the data set: RSV plaque reduction assay. The class given is cell-based, respiratory syncytial virus (RSV). The conditions noted are these: human respiratory syncytial virus, HepG2, Hep-G2 cells, mean of at least two experiments. The method in brief: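 RSV A2 at 100 PFU/well was premixed with eight compound dilutions and added to confluent Hep-G2 monolayers for 2 h at 37 °C. Cells were then kept 2 days under a DMEM/2% FBS/0.8% CMC overlay containing compound. Immunostained plaques were counted relative to virus controls, and EC50 came from 4-parameter fits, averaged over at least two experiments.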
Background: In a plaque reduction assay, fewer plaques than in the control indicate reduced infectivity or spread.

A short description of a further data set: Cell cytotoxicity (CC50). In kind it is cell-based. The conditions noted are these: human; mean of at least two experiments. The method in brief: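 Values are means of ≥2 independent runs, rounded to whole units, from 4-parameter variable-slope curve fits. Toxicity measured in Hep-G2 cells run alongside RSV plaque-reduction assays.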
Another data set can be described thus: in vitro. In kind it is in vitro ADME. The conditions noted are these: microsomes, pH 7.4, 1 μM compound, 0.5 mg/mL protein, read-out: Liver Microsomal Stability t1/2. The procedure:
Compounds were subjected to the following assays to investigate liver microsomal stability and hepatocyte stability.
Microsomal Incubation: Experimental Procedure
Pooled liver microsomes were purchased from a reputable commercial supplier and stored at −80° C. prior to use. Microsomes (final protein concentration 0.5 mg/mL), 0.1 M phosphate buffer pH 7.4 and test compound (final substrate concentration 1 μM; final DMSO concentration 0.25%) were pre-incubated at 37° C. prior to the addition of NADPH (final concentration 1 mM) to initiate the reaction. The final incubation volume was 50 μL. A control incubation was included for each compound tested where 0.1 M phosphate buffer pH 7.4 was added instead of NADPH (minus NADPH). Two control compounds were included with each species. All incubations were performed singularly for each test compound. Each compound was incubated for 0, 5, 15, 30 and 45 min. The control (minus NADPH) was incubated for 45 min only. The reactions were stopped by transferring incubate into acetonitrile at the appropriate time points, in a 1:3 ratio. The termination plates are centrifuged at 3,000 rpm for 20 min at 4° C. to precipitate the protein. Following protein precipitation, the sample supernatants were combined in cassettes of up to 4 compounds, internal standard added, and samples analysed by LC-MS/MS. From a plot of ln peak area ratio (compound peak area/internal standard peak area) against time, the gradient of the line was determined. Subsequently, half-life (t1/2) and intrinsic clearance (CLint) were calculated.
For orientation: Liver microsomes are a subcellular fraction often used to study metabolism.

The structures appear in SMILES notation. Read-outs that look alike come from different tables or passages of the source.

One may read the EC50 as the concentration that produces a half-maximal response. For orientation: CC50 means the concentration at which the toxic effect on the cells reaches its halfway point. A lower CC50 goes with harm at low concentration.

The compound `CCc1ccc(-c2nn3cccnc3c2C(=O)N[C@H]2N=C(c3ccccc3)c3ccccc3NC2=O)cn1` [Example 54, 2-(6-Ethylpyridin-3-yl)-N-[(3S)-2-oxo-5-phenyl-1,3-dihydro-1,4-benzodiazepin-3-yl]pyrazolo[1,5-a]pyrimidine-3-carboxamide] showed a concentration for a half-maximal effect (EC50) in the data set on RSV A2 of 151 nM. Besides, the CC50 in the data set “Cell cytotoxicity (CC50)” was greater than 25 µM. Moreover, the values for the half-life at 1 μM in “in vitro” (dog), in the data set “in vitro” (human) and in “in vitro” (rat) were 79 min, 175 min and 77 min, respectively.
The compound `CC(C)c1ccc(-c2nn3cccnc3c2C(=O)N[C@H]2N=C(c3ccccc3)c3cccc(F)c3NC2=O)cn1` [Example 59, 2-(6-Propan-2-ylpyridin-3-yl)-N-[(3S)-9-fluoro-2-oxo-5-phenyl-1,3-dihydro-1,4-benzodiazepin-3-yl]pyrazolo[1,5-a]pyrimidine-3-carboxamide] showed an EC50 with RSV A2 of 60 nM. Moreover, the CC50 in “Cell cytotoxicity (CC50)” was greater than 25 µM. In addition, the half-life at 1 μM was found to be 90.6 min in the data set “in vitro” (dog), 137 min in “in vitro” (human) and 60.3 min in the data set “in vitro” (rat).
For `Cn1ncc2cc(-c3nn4cccnc4c3C(=O)N[C@H]3N=C(c4ccccc4)c4cccc(F)c4NC3=O)ccc21` [Example 63, N-[(3S)-9-fluoro-2-oxo-5-phenyl-1,3-dihydro-1,4-benzodiazepin-3-yl]-2-(1-methylindazol-5-yl)pyrazolo[1,5-a]pyrimidine-3-carboxamide], the response in the data set on RSV A2 was half-maximal at 66 nM (EC50). Moreover, the cytotoxic concentration (CC50) in “Cell cytotoxicity (CC50)” was greater than 25 µM. In addition, the half-life at 1 μM came to 152 min in the data set “in vitro” (dog), 113 min in the data set “in vitro” (human) and 227 min in “in vitro” (rat).
For `Cc1cncc(-c2nn3cccnc3c2C(=O)N[C@H]2N=C(c3ccccc3)c3cccc(F)c3NC2=O)c1` [Example 64, N-[(3S)-9-fluoro-2-oxo-5-phenyl-1,3-dihydro-1,4-benzodiazepin-3-yl]-2-(5-methylpyridin-3-yl)pyrazolo[1,5-a]pyrimidine-3-carboxamide], in that order: 100 nM, greater than 18.8 µM, 215 min, 1450 min and 102 min.
Compound `CC(C)Nc1ccc(-c2nn3cccnc3c2C(=O)N[C@H]2N=C(c3ccccc3)c3ccccc3NC2=O)c(F)n1` [Example 69, 2-[2-Fluoro-6-(propan-2-ylamino)pyridin-3-yl]-N-[(3S)-2-oxo-5-phenyl-1,3-dihydro-1,4-benzodiazepin-3-yl]pyrazolo[1,5-a]pyrimidine-3-carboxamide] returned an EC50 in the data set with RSV A2 of 19 nM. The compound further had a CC50 in the data set “Cell cytotoxicity (CC50)” greater than 25 µM. Further, the half-life at 1 μM was found to be 26.8 min in the data set “in vitro” (dog), 193 min in the data set “in vitro” (human) and 146 min in “in vitro” (rat).
The matching figures for `CC(C)Nc1ccc(-c2nn3cccnc3c2C(=O)N[C@H]2N=C(c3ccccc3)c3cccc(F)c3NC2=O)c(F)n1` [Example 70, N-[(3S)-9-Fluoro-2-oxo-5-phenyl-1,3-dihydro-1,4-benzodiazepin-3-yl]-2-[2-fluoro-6-(propan-2-ylamino)pyridin-3-yl]pyrazolo[1,5-a]pyrimidine-3-carboxamide]: 23 nM, greater than 25 µM, 31.5 min, 207 min and 99.1 min.
The compound `O=C(N[C@H]1N=C(c2ccccc2)c2cccc(F)c2NC1=O)c1c(-c2ccc(N3CCOCC3)nc2)nn2cccnc12` [Example 72, N-[(3S)-9-fluoro-2-oxo-5-phenyl-1,3-dihydro-1,4-benzodiazepin-3-yl]-2-(6-morpholin-4-ylpyridin-3-yl)pyrazolo[1,5-a]pyrimidine-3-carboxamide] gave a concentration for a half-maximal effect (EC50) in the data set on RSV A2 of 118 nM. Also, in the data set “Cell cytotoxicity (CC50)”, the CC50 is greater than 25 µM. Moreover, the half-life at 1 μM in the data set “in vitro” (dog) is 51.4 min; in “in vitro” (human), 180 min; in “in vitro” (rat) it was 158 min.
`CC(C)Nc1ccc(-c2nn3cccnc3c2C(=O)N[C@H]2N=C(c3ccccc3)c3cccc(F)c3NC2=O)cn1` [Example 74, N-[(3S)-9-Fluoro-2-oxo-5-phenyl-1,3-dihydro-1,4-benzodiazepin-3-yl]-2-[6-(propan-2-ylamino)pyridin-3-yl]pyrazolo[1,5-a]pyrimidine-3-carboxamide] yielded an EC50 in the data set with RSV A2 of 28 nM. This compound had a CC50 in “Cell cytotoxicity (CC50)” greater than 25 µM. Besides, the half-life at 1 μM stood at 43.5 min in “in vitro” (dog), 264 min in “in vitro” (human) and 70.4 min in “in vitro” (rat).
Regarding `O=C(N[C@H]1N=C(c2ccccc2)c2cccc(F)c2NC1=O)c1c(-c2cnc3[nH]ccc3c2)nn2cccnc12` [Example 75, N-[(3S)-9-Fluoro-2-oxo-5-phenyl-1,3-dihydro-1,4-benzodiazepin-3-yl]-2-(1H-pyrrolo[2,3-b]pyridin-5-yl)pyrazolo[1,5-a]pyrimidine-3-carboxamide], it took 44 nM to reach a half-maximal effect in the data set on RSV A2 (EC50). The compound also showed a CC50 in the data set “Cell cytotoxicity (CC50)” greater than 25 µM. Further, the results for the half-life at 1 μM in the data set “in vitro” (dog), in the data set “in vitro” (human) and in “in vitro” (rat) were 86.9 min, 678 min and 50 min, respectively.
For `Cc1ccc2nc(-c3ccc(F)cn3)c(C(=O)N[C@H]3N=C(c4ccccc4)c4cccc(F)c4NC3=O)n2n1` [Example 78, N-[(3S)-9-fluoro-2-oxo-5-phenyl-1,3-dihydro-1,4-benzodiazepin-3-yl]-2-(5-fluoropyridin-2-yl)-6-methylimidazo[1,2-b]pyridazine-3-carboxamide], in that order: 81 nM, greater than 25 µM, 250 min, 230 min and 55.4 min.
The matching figures for `CN1C[C@@H]2C[C@H]1CN2c1ccc2nc(-c3ccccc3)c(C(=O)N[C@H]3N=C(c4ccccc4)c4cccc(F)c4NC3=O)n2n1` [Example 80, N-[(3S)-9-fluoro-2-oxo-5-phenyl-1,3-dihydro-1,4-benzodiazepin-3-yl]-6-[(1S,4S)-5-methyl-2,5-diazabicyclo[2.2.1]heptan-2-yl]-2-phenylimidazo[1,2-b]pyridazine-3-carboxamide]: 51 nM, 13.8 µM, 179 min, 144 min and 114 min.
For `CN1C[C@H]2C[C@@H]1CN2c1ccc2nc(-c3ccccc3)c(C(=O)N[C@H]3N=C(c4ccccc4)c4cccc(F)c4NC3=O)n2n1` [Example 81, N-[(3S)-9-fluoro-2-oxo-5-phenyl-1,3-dihydro-1,4-benzodiazepin-3-yl]-6-[(1R,4R)-5-methyl-2,5-diazabicyclo[2.2.1]heptan-2-yl]-2-phenylimidazo[1,2-b]pyridazine-3-carboxamide], in that order: 114 nM, 8.15 µM, 113 min, 29.3 min and 89.6 min.
Consider `Cc1ccc(-c2nn3cccnc3c2C(=O)N[C@H]2N=C(c3ccccc3)c3ccccc3NC2=O)c(F)n1` [Example 85, 2-(2-Fluoro-6-methylpyridin-3-yl)-N-[(3S)-2-oxo-5-phenyl-1,3-dihydro-1,4-benzodiazepin-3-yl]pyrazolo[1,5-a]pyrimidine-3-carboxamide], for which the midpoint of the response with RSV A2, the EC50, lay at 57 nM. Moreover, in the data set “Cell cytotoxicity (CC50)”, the CC50 was greater than 25 µM. For the same compound, the values for the half-life at 1 μM in “in vitro” (dog), in “in vitro” (human) and in the data set “in vitro” (rat) were 105 min, greater than 140 min and 198 min, respectively.
In the case of `O=C(N[C@H]1N=C(c2ccccc2)c2ccccc2NC1=O)c1c(-c2ccccc2)nc2cccnn12` [Example 87, N-[(3S)-2-oxo-5-phenyl-1,3-dihydro-1,4-benzodiazepin-3-yl]-2-phenylimidazo[1,2-b]pyridazine-3-carboxamide], a half-maximal response with RSV A2 (EC50) required 53 nM. Also, the CC50 in “Cell cytotoxicity (CC50)” is greater than 25 µM. For the same compound, the half-life at 1 μM came out at 67.5 min in the data set “in vitro” (dog), 4130 min in the data set “in vitro” (human) and 86 min in the data set “in vitro” (rat).
In turn, `O=C(N[C@H]1N=C(c2ccccc2)c2ccccc2NC1=O)c1c(-c2ccc(F)cc2F)nc2cccnn12` [Example 88, 2-(2,4-Difluorophenyl)-N-[(3S)-2-oxo-5-phenyl-1,3-dihydro-1,4-benzodiazepin-3-yl]imidazo[1,2-b]pyridazine-3-carboxamide] gave an EC50 with RSV A2 of 20 nM. Further, the half-maximal cytotoxic concentration (CC50) in “Cell cytotoxicity (CC50)” is greater than 25 µM. The half-life at 1 μM in “in vitro” (dog) was 76.4 min; in the data set “in vitro” (human), greater than 140 min; in “in vitro” (rat), 202 min.
